Test results taken from patent publication US20020028788A1, “Vaginal active agent delivery procedures and formulations thereof” (priority 1998, published 2002).
Marks after values point to notes of the source that are not given here.

Columns and labels:
cattle [1] = test: Follicular dynamics and oestrus following vaginal oestradiol 17β or intramuscular oestradiol benzoate; assay type: in vivo; details: for Follicle wave turnover (i.e. DF3) / No follicle wave turnover (i.e. no DF3): number of animals
[2] = Plasma oestradiol concentration and pharmacokinetics following vaginal or intramuscular administration; assay type: in vivo; details: cattle, oestradiol benzoate
Method: Error bars are standard error means (n=3).
FIG. 2 is a plasma oestradiol concentrations following vaginal administration of 10 mg oestradiol benzoate (open square), 10 mg oestradiol benzoate with 1:1 molar ratio β-cyclodextrin (open diamond), 10 mg oestradiol benzoate with 1:1 molar ratio hydroxypropyl β-cyclodextrin (open circle) or 10 mg oestradiol benzoate with 1:1 molar ratio γ-cyclodextrin (open triangle). Error bars are standard error means (n=4).
Error bars are standard error means (n=4).

cattle [3] = details: past attempts; vaginal administration by capsule; doses typically 10 times higher than intra-muscular; cited from earlier work
[4] = 2.5 mg oestradiol 17β, vaginal administration
[5] = 5.0 mg oestradiol 17β, vaginal administration
[6] = 2.5 mg oestradiol 17β, vaginal administration, group n = 8
[7] = 5.0 mg oestradiol 17β, vaginal administration, group n = 8
[8] = 2 mg oestradiol benzoate, intramuscular administration
[9] = 2 mg oestradiol benzoate, intramuscular administration, group n = 7

Structure (SMILES): C[C@]12CC[C@@H]3c4ccc(O)cc4CC[C@H]3[C@@H]1CC[C@@H]2O [oestradiol 17β]
- Age of ovulatory DF2 (cattle [1]; [4]): 12.0 ± 0.6 ^ d
- Age of ovulatory DF3 (cattle [1]; [4]): 6 days
- Day DF2 emerged (cattle [1]; [4]): 9.9 ± 0.4^a
- Diameter DF2 on Day 13 (cattle [1]; [4]): 9.9 ± 0.5^a mm
- Diameter of ovulatory DF2 (cattle [1]; [4]): 15.6 ± 0.7 ^ mm
- Diameter of ovulatory DF3 (cattle [1]; [4]): 12 mm
- Growth of DF2 from Day 13-17 (cattle [1]; [4]): 2.4 ± 0.6^a mm
- Day of oestrus (cattle [1]; 2.5 mg oestradiol 17β, vaginal administration, n = 7): 22.0 ± 0.0 (n = 7)
- Age of ovulatory DF2 (cattle [1]; [5]): 11.5 ± 0.5 ^ d
- Age of ovulatory DF3 (cattle [1]; [5]): 7.0 ± 0.5^ d
- Day DF2 emerged (cattle [1]; [5]): 10.0 ± 0.6^a
- Day DF3 emerged (cattle [1]; [5]): 15.7 ± 0.6 ^
- Diameter DF2 on Day 13 (cattle [1]; [5]): 9.3 ± 0.8^a mm
- Diameter of ovulatory DF2 (cattle [1]; [5]): 17.0 ± 1.0 ^ mm
- Diameter of ovulatory DF3 (cattle [1]; [5]): 13.7 ± 0.7 ^ mm
- Growth of DF2 from Day 13-17 (cattle [1]; [5]): 0.9 ± 0.8^ab mm
- Day of oestrus (cattle [1]; 5.0 mg oestradiol 17β, vaginal administration, n = 8): 22.0 ± 0.0 (n = 8)
- Follicle wave turnover (i.e. DF3) (cattle [1]; [6]): 3
- No follicle wave turnover (i.e. no DF3) (cattle [1]; [6]): 5
- Follicle wave turnover (i.e. DF3) (cattle [1]; [7]): 6
- No follicle wave turnover (i.e. no DF3) (cattle [1]; [7]): 2
- influence on follicular dynamics (cattle [1]; vaginal administration, 5 mg oestradiol 17β and γ-cyclodextrin in molar ratio 0.5:1, compared with i.m. 2 mg oestradiol benzoate): influences follicular dynamics in a similar manner

Structure (SMILES): C[C@]12CC[C@@H]3c4ccc(OC(=O)c5ccccc5)cc4CC[C@H]3[C@@H]1CC[C@@H]2O [oestradiol benzoate]
- absorption following vaginal administration [2]: poor and variable absorption
- oestrus expression and fertility (cattle [3]): poor oestrus expression and poor fertility
- Age of ovulatory DF3 (cattle [1]; [8]): 6.0 ± 0.5^ d
- Day DF2 emerged (cattle [1]; [8]): 9.6 ± 0.6^a
- Day DF3 emerged (cattle [1]; [8]): 17.0 ± 0.4 ^
- Diameter DF2 on Day 13 (cattle [1]; [8]): 9.6 ± 1.0^a mm
- Diameter of ovulatory DF3 (cattle [1]; [8]): 14.2 ± 0.4 ^ mm
- Growth of DF2 from Day 13-17 (cattle [1]; [8]): −0.6 ± 0.7^b mm
- Day of oestrus (cattle [1]; 2 mg oestradiol benzoate, intramuscular administration, n = 7): 22.6 ± 0.2 (n = 7)
- Follicle wave turnover (i.e. DF3) (cattle [1]; [9]): 6
- No follicle wave turnover (i.e. no DF3) (cattle [1]; [9]): 1
